Measured values taken from patent US10383912B2, “Tunable pH-sensitive linker for controlled drug release” (Washington State University, priority 2014, dated 2019).

What was measured:
[1] = pH stability: half-lives for P—N bond hydrolysis of model linkers; format: physicochemical
Text: The present disclosure provides a method of screening for conjugates that can deliver an agent at a specific pH. In one aspect, conjugates having formula (I) comprising various substituents neighboring the ionizable group and having varying length between the ionizable group and the phosphorus center could be screened to determine which conjugates will hydrolyze at pH 3.0, 3.5, 4.0, 4.5, 5.0, 5.5, 6.0, and 6.5. In another aspect, a specific conjugate can be screened to determine at which pH it will hydrolyze or which pH its rate of hydrolysis is the fastest. The hydrolysis of the conjugate can be monitored by nuclear magnetic resonance (NMR) (FIG. 6), HPLC, spectrophotometric methods, or mass spectrometry.
It was observed from studies on distance effects that proximity of a neighboring, but electronically isolated, functional group, can be used to alter the stability of a phorphoramidate bond.

[2] = Plasma stability of cleavable linkers; format: in vitro ADME
Protocol: When a conjugate is administered to a subject in vivo, its plasma stability is important. The present disclosure provides conjugates with the desired plasma stability. Plasma stability of cleavable linkers with the desired release profile are provided herein.

## O=P(O)(NCCc1ccccc1)OCCCc1cccnc1 [Entry H5]
[1]
  ½ Lives for P—N Bond Hydrolysis, pH 3: 1.9 hr
  ½ Lives for P—N Bond Hydrolysis, pH 4.5: 19.3 hr
  ½ Lives for P—N Bond Hydrolysis, pH 6.5 (result in words): Stable
  ½ Lives for P—N Bond Hydrolysis, pH 7.4: 90 day days
[1]; pH 5.5
  ½ Lives for P—N Bond Hydrolysis, pH 5.5: 8 day days

## O=P(O)(Nc1ccccc1)OCCCc1cccnc1 [Entry H7]
[1]
  ½ Lives for P—N Bond Hydrolysis, pH 3: 1.6 day days
  ½ Lives for P—N Bond Hydrolysis, pH 4.5: 133 days
  ½ Lives for P—N Bond Hydrolysis, pH 4.5 (result in words): Stable
  ½ Lives for P—N Bond Hydrolysis, pH 6.5: 8 days
  ½ Lives for P—N Bond Hydrolysis, pH 6.5 (result in words): STABLE
  ½ Lives for P—N Bond Hydrolysis, pH 7.4: 27 day days
[1]; pH 5.5
  ½ Lives for P—N Bond Hydrolysis, pH 5.5: 16 day days

## CN(CCc1ccccc1)P(=O)(O)OCCCc1cccnc1 [Entry H9]
[1]
  ½ Lives for P—N Bond Hydrolysis, pH 3: 0.48 hr
  ½ Lives for P—N Bond Hydrolysis, pH 6.5: 19.3 hr
  ½ Lives for P—N Bond Hydrolysis, pH 7.4: 2.7 days
[1]; pH 5.5
  ½ Lives for P—N Bond Hydrolysis, pH 5.5: 3.2 hr
[2]; Plasma (pH 7.23)
  ½ Life for P—N Bond Hydrolysis, Plasma: 27.5 h

## CN(c1ccccc1)P(=O)(O)OCCCc1cccnc1 [Entry H11]
[1]
  ½ Lives for P—N Bond Hydrolysis, pH 3: 0.48 hr
  ½ Lives for P—N Bond Hydrolysis, pH 6.5: 1.1 days
  ½ Lives for P—N Bond Hydrolysis, pH 7.4: 10 day days
[1]; pH 5.5
  ½ Lives for P—N Bond Hydrolysis, pH 5.5: 9.6 hr

## O=P(O)(NCCc1ccccc1)OCCCc1ccccn1 [Entry H41]
[1]
  ½ Lives for P—N Bond Hydrolysis, pH 3: 2.1 hr
  ½ Lives for P—N Bond Hydrolysis, pH 4.5: 9.63 hr
  ½ Lives for P—N Bond Hydrolysis, pH 6.5: 24.1 hr
  ½ Lives for P—N Bond Hydrolysis, pH 7.4: 11 days
[1]; pH 5.5
  ½ Lives for P—N Bond Hydrolysis, pH 5.5: 19.3 hr

## CN(CCc1ccccc1)P(=O)(O)OCCCc1ccccn1 [Entry H43]
[1]
  ½ Lives for P—N Bond Hydrolysis, pH 3: 0.21 hr
  ½ Lives for P—N Bond Hydrolysis, pH 6.5: 3.85 hr
  ½ Lives for P—N Bond Hydrolysis, pH 7.4: 21.4 hr
[1]; pH 5.5
  ½ Lives for P—N Bond Hydrolysis, pH 5.5: 1.2 hr
[2]; Plasma (pH 7.38)
  ½ Life for P—N Bond Hydrolysis, Plasma: 19.3 h

## O=P(O)(Nc1ccccc1)OCCCc1ccccn1 [Entry H45]
[1]
  ½ Lives for P—N Bond Hydrolysis, pH 3: 1.6 day days
  ½ Lives for P—N Bond Hydrolysis, pH 4.5: 8.9 day days
  ½ Lives for P—N Bond Hydrolysis, pH 6.5: 8 days
  ½ Lives for P—N Bond Hydrolysis, pH 7.4: 4 day days
[1]; pH 5.5
  ½ Lives for P—N Bond Hydrolysis, pH 5.5: 2.0 days

## CN(CCc1ccccc1)P(=O)(O)OCCc1ccccn1 [Entry H69]
[1]
  ½ Lives for P—N Bond Hydrolysis, pH 3 (result in words): Unstable
  ½ Lives for P—N Bond Hydrolysis, pH 4.5 (result in words): Unstable
  ½ Lives for P—N Bond Hydrolysis, pH 6.5 (result in words): Unstable
  ½ Lives for P—N Bond Hydrolysis, pH 7.4 (result in words): Unstable
[1]; pH 5.5
  ½ Lives for P—N Bond Hydrolysis, pH 5.5 (result in words): Unstable

## O=P(O)(Nc1ccccc1)OCCc1ccccn1 [Entry H85]
[1]
  ½ Lives for P—N Bond Hydrolysis, pH 3: 0.32 hr
  ½ Lives for P—N Bond Hydrolysis, pH 6.5: 1.9 hr
  ½ Lives for P—N Bond Hydrolysis, pH 7.4: 9.6 hr
[1]; pH 5.5
  ½ Lives for P—N Bond Hydrolysis, pH 5.5: 0.96 hr

## O=P(O)(NCCc1ccccc1)OCCc1cccnc1 [Entry H97]
[1]
  ½ Lives for P—N Bond Hydrolysis, pH 3: 2.8 hr
  ½ Lives for P—N Bond Hydrolysis, pH 6.5: 4 days
  ½ Lives for P—N Bond Hydrolysis, pH 7.4: 16 days
[1]; pH 5.5
  ½ Lives for P—N Bond Hydrolysis, pH 5.5: 1.6 days

## CN(CCc1ccccc1)P(=O)(O)OCCc1cccnc1 [Entry H99]
[1]
  ½ Lives for P—N Bond Hydrolysis, pH 3: 0.39 hr
  ½ Lives for P—N Bond Hydrolysis, pH 4.5: 1.93 hr
  ½ Lives for P—N Bond Hydrolysis, pH 6.5: 9.6 hr
  ½ Lives for P—N Bond Hydrolysis, pH 7.4: 1.6 days
[1]; pH 5.5
  ½ Lives for P—N Bond Hydrolysis, pH 5.5: 3.2 hr

## CN(c1ccccc1)P(=O)(O)OCCc1cccnc1 [Entry H105]
[1]
  ½ Lives for P—N Bond Hydrolysis, pH 3: 0.64 hr
  ½ Lives for P—N Bond Hydrolysis, pH 4.5: 3.85 hr
  ½ Lives for P—N Bond Hydrolysis, pH 6.5: 19.3 hr
  ½ Lives for P—N Bond Hydrolysis, pH 7.4: 10 days
[1]; pH 5.5
  ½ Lives for P—N Bond Hydrolysis, pH 5.5: 9.6 hr

## O=P(O)(Nc1ccccc1)OCCc1cccnc1 [Entry H113]
[1]
  ½ Lives for P—N Bond Hydrolysis, pH 3: 4 days
  ½ Lives for P—N Bond Hydrolysis, pH 4.5: 20 days
  ½ Lives for P—N Bond Hydrolysis, pH 6.5: 2 days
  ½ Lives for P—N Bond Hydrolysis, pH 6.5 (result in words): Stable
  ½ Lives for P—N Bond Hydrolysis, pH 7.4: 16 days
[1]; pH 5.5
  ½ Lives for P—N Bond Hydrolysis, pH 5.5: 8 days

## CN(c1ccccc1)P(=O)(O)OCCc1ccccn1 [Entry H115]
[1]
  ½ Lives for P—N Bond Hydrolysis, pH 3 (result in words): Unstable
  ½ Lives for P—N Bond Hydrolysis, pH 4.5 (result in words): Unstable
  ½ Lives for P—N Bond Hydrolysis, pH 6.5 (result in words): Unstable
  ½ Lives for P—N Bond Hydrolysis, pH 7.4 (result in words): Unstable
[1]; pH 5.5
  ½ Lives for P—N Bond Hydrolysis, pH 5.5 (result in words): Unstable

## O=P(O)(NCCc1ccccc1)OCCc1ccccn1 [Entry H119]
[1]
  ½ Lives for P—N Bond Hydrolysis, pH 3 (result in words): Unstable
  ½ Lives for P—N Bond Hydrolysis, pH 6.5: 0.32 hr
  ½ Lives for P—N Bond Hydrolysis, pH 7.4: 2.1 hr
[1]; pH 5.5
  ½ Lives for P—N Bond Hydrolysis, pH 5.5: 0.13 hr

## CN(CCc1ccccc1)P(=O)(O)OCCCc1ccccc1 [Entry H133]
[1]; pH 5.5
  ½ Lives for P—N Bond Hydrolysis, pH 5.5: 9.6 hr
[1]; pH 5.5, value in parentheses, meaning not explained
  ½ Life for P—N Bond Hydrolysis, pH 5.5, second value in parentheses: 1.9 hr

## CN(c1ccccc1)P(=O)(O)OCCCc1ccccn1 [Entry H135]
[1]
  ½ Lives for P—N Bond Hydrolysis, pH 3: 0.48 hr
  ½ Lives for P—N Bond Hydrolysis, pH 6.5: 3.9 hr
  ½ Lives for P—N Bond Hydrolysis, pH 7.4: 1.3 days
[1]; pH 5.5
  ½ Lives for P—N Bond Hydrolysis, pH 5.5: 2.1 hr

## Cc1ccc(C(=O)NC(COP(=O)(O)N(C)CCc2ccccc2)C(=O)O)cc1 (stereo not drawn) [Entry H155]
[1]; pH 5.5
  ½ Lives for P—N Bond Hydrolysis, pH 5.5: 3.98 min
[1]
  ½ Lives for P—N Bond Hydrolysis, pH 6.5: 9.63 min
  ½ Lives for P—N Bond Hydrolysis, pH 7.4: 1.93 hr

## Cc1ccc(C(=O)NC(COP(=O)(O)NCCc2ccccc2)C(=O)O)cc1 (stereo not drawn) [Entry H157]
[1]
  ½ Lives for P—N Bond Hydrolysis, pH 4.5: 5.25 min
  ½ Lives for P—N Bond Hydrolysis, pH 6.5: 1.93 hr
  ½ Lives for P—N Bond Hydrolysis, pH 7.4: 19.3 hr
[1]; pH 5.5
  ½ Lives for P—N Bond Hydrolysis, pH 5.5: 38.5 min

## Cc1ccc(C(=O)NC(COP(=O)(O)Nc2ccccc2)C(=O)O)cc1 (stereo not drawn) [Entry H159]
[1]
  ½ Lives for P—N Bond Hydrolysis, pH 3: 12.8 min
  ½ Lives for P—N Bond Hydrolysis, pH 4.5: 3.21 hr
  ½ Lives for P—N Bond Hydrolysis, pH 6.5: 2.0 days
  ½ Lives for P—N Bond Hydrolysis, pH 7.4: 26.7 days
[1]; pH 5.5
  ½ Lives for P—N Bond Hydrolysis, pH 5.5: 19.25 hr

## Cc1ccc(C(=O)NC(COP(=O)(O)N(C)c2ccccc2)C(=O)O)cc1 (stereo not drawn) [Entry H161]
[1]
  ½ Lives for P—N Bond Hydrolysis, pH 4.5: 0.98 min
  ½ Lives for P—N Bond Hydrolysis, pH 6.5: 38.5 min
  ½ Lives for P—N Bond Hydrolysis, pH 7.4: 6.42 hr
[1]; pH 5.5
  ½ Lives for P—N Bond Hydrolysis, pH 5.5: 16.5 min

## Cc1ccc(C(=O)NC(CCOP(=O)(O)N(C)CCc2ccccc2)C(=O)O)cc1 (stereo not drawn) [Entry H179]
[1]
  ½ Lives for P—N Bond Hydrolysis, pH 4.5: 0.96 hr
  ½ Lives for P—N Bond Hydrolysis, pH 7.4: 2 Days days
[1]; pH 5.5
  ½ Lives for P—N Bond Hydrolysis, pH 5.5: 9.62 hr

## CN(c1ccccc1)P(=O)(O)OCc1ccccc1C(=O)O [Entry I11]
[1]; pH 5.5
  ½ Lives for P—N Bond Hydrolysis, pH 5.5: 14.4 min
[1]
  ½ Lives for P—N Bond Hydrolysis, pH 6.5: 57.8 min
  ½ Lives for P—N Bond Hydrolysis, pH 7.4: 6.42 hr
